Source: patent US20200131669A1, “CYCLIC PEPTIDE COMPOUND HAVING HIGH MEMBRANE PERMEABILITY, AND LIBRARY CONTAINING SAME” (Chugai Seiyaku Kabushiki Kaisha, priority 2017, published 2020)
Starred links: 1 amine or outer side, 2 acyl side, 3 side chain; linkers in the order of their positions; H or OH if unused. Positions of bridges follow the written chain, without caps; N, C: chain ends. Non-standard residues stand in square brackets, D forms with d. Residues, ends and D or L forms follow the SMILES beside them. *: point of attachment. NMeAbu(3,3-F2-piperidino) = CN[C@@H](CCN1CCCC(F)(F)C1)C(=O)O; Glu(NHSO2Me) = CS(=O)(=O)NC(=O)CC[C@H](N)C(=O)O; Phe(4-CF3) = N[C@@H](Cc1ccc(C(F)(F)F)cc1)C(=O)O; 3Pal(6-NMe2) = CN(C)c1ccc(C[C@H](N)C(=O)O)cn1; Phe(4-CHF2) = N[C@@H](Cc1ccc(C(F)F)cc1)C(=O)O; NMePhe(3-Cl) = CN[C@@H](Cc1cccc(Cl)c1)C(=O)O; X5 = O=C(C(CCc1noc(=O)[nH]1)N[*:1])[*:2]; Gly(NCH2CH2Ph) = O=C(O)CNCCc1ccccc1; Hyp = O=C(O)[C@@H]1C[C@@H](O)CN1; NMeF = CN[C@@H](Cc1ccccc1)C(=O)O; NMeGABA = CN(CCCC(=O)[*:2])[*:1]; NMeI = CC[C@H](C)[C@H](NC)C(=O)O; hPhe = N[C@@H](CCc1ccccc1)C(=O)O; NMeL = CN[C@@H](CC(C)C)C(=O)O; NMeV = CN[C@H](C(=O)O)C(C)C; NMeAbu = CC[C@H](NC)C(=O)O; Pip = O=C(O)[C@@H]1CCCCN1; NMeA = CN[C@@H](C)C(=O)O; Piperidide = C1CCN(*)CC1; CH2CMe2OH = CC(C)(O)C*; Me2NCH2CH2 = CN(C)CC*; NBuGly = CCCCNCC(=O)O; Isopentyl = CC(C)CC*; Sar = CNCC(=O)O; tBu = CC(C)(C)*

Assay: Caco-2 membrane permeability, improved method as used in the following Examples (96-well, 20 to 24 h preincubation)
Type: in vitro ADME
Conditions: Caco-2, Caco-2 (cm/sec)
How it was run: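 Caco-2 monolayers were grown three weeks and preincubated 20–24 h at 37 °C with compound in DMEM+FaSSIF (1% DMSO) apically. The assay then used compound in FaSSIF/HBSS (1% DMSO, pH 6.0) apically and HBSS with 4% BSA (pH 7.4) basally. Basal samples were taken at 180 min for LC/MS, and Papp (cm/sec) was calculated.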

Structure (SMILES)	Papp A→B
CC(C)C[C@H]1C(=O)N[C@@H](COC(C)(C)C)C(=O)N(C)[C@@H](C(C)C)C(=O)N(C)[C@@H](C)C(=O)N[C@H](C(=O)N2CCCCC2)CC(=O)N[C@H](C)C(=O)N(C)[C@@H](Cc2ccccc2)C(=O)N[C@@H](Cc2ccc(C(F)(F)F)cc2)C(=O)N(C)[C@@H](CC(C)C)C(=O)N[C@@H]([C@@H](C)O)C(=O)N(C)CC(=O)N1C [pd130] ([dA][NMeF][Phe(4-CF3)][NMeL]T[Sar][NMeL]S(tBu)[NMeV][NMeA]D-Piperidide; lactam N-11)	1.1 ×10⁻⁶ cm/s

Same assay, conditions: human, Caco-2, Caco-2

Structure (SMILES)	Papp A→B at 180 min
CCCCN1CC(=O)N(C)[C@@H](CC(C)C)C(=O)N[C@H](C(=O)N2CCCCC2)CC(=O)N(C)[C@@H](C)C(=O)N[C@@H](Cc2ccc(N(C)C)nc2)C(=O)N(C)[C@@H](C)C(=O)N(C)[C@@H](C)C(=O)N[C@@H](CC(C)C)C(=O)N(C)[C@@H](Cc2cccc(Cl)c2)C(=O)N(C)[C@@H](CC(C)C)C(=O)N[C@@H]([C@@H](C)O)C1=O [pd400] ([NMeA][3Pal(6-NMe2)][NMeA][NMeA]L[NMePhe(3-Cl)][NMeL]T[NBuGly][NMeL]D-Piperidide; lactam N-11)	2.3 ×10⁻⁶ cm/s
CC[C@H]1C(=O)N[C@@H]([C@@H](C)O)C(=O)N(CCc2ccccc2)CC(=O)N(C)[C@@H](CC(C)C)C(=O)N[C@H](COC(C)(C)C)C(=O)N(C)[C@@H](CC(C)C)C(=O)N(C)[C@@H](CC)C(=O)N[C@H](C(=O)N2CCCCC2)CC(=O)N[C@H](C)C(=O)N(C)[C@@H](Cc2ccccc2)C(=O)N[C@@H](CC(C)C)C(=O)N1C [pd409] ([dA][NMeF]L[NMeAbu]T[Gly(NCH2CH2Ph)][NMeL][dS](tBu)[NMeL][NMeAbu]D-Piperidide; lactam N-11)	1.4 ×10⁻⁶ cm/s
CC[C@H]1C(=O)N(C)[C@@H](Cc2ccccc2)C(=O)N[C@@H](C)C(=O)N(C)[C@@H](CC(C)C)C(=O)N(C)[C@@H](CC)C(=O)N[C@@H]([C@@H](C)O)C(=O)N(CCc2ccccc2)CC(=O)N(C)[C@@H](CC(C)C)C(=O)N[C@H](C(=O)N2CCCCC2)CC(=O)N(C)[C@@H](C(C)C)C(=O)N[C@@H](CC(C)C)C(=O)N1C [pd410] ([NMeV]L[NMeAbu][NMeF]A[NMeL][NMeAbu]T[Gly(NCH2CH2Ph)][NMeL]D-Piperidide; lactam N-11)	6 ×10⁻⁶ cm/s
CC(C)C[C@@H]1NC(=O)[C@H](Cc2ccccc2)N(C)C(=O)[C@@H](C(C)C)NC(=O)C[C@@H](C(=O)N2CCCCC2)NC(=O)[C@H](CC(C)C)N(C)C(=O)[C@H](Cc2cccc(Cl)c2)N(C)C(=O)[C@H](COCC(C)(C)O)NC(=O)[C@H](CC(C)C)N(C)C(=O)CN(C)C(=O)[C@H]([C@@H](C)O)NC(=O)[C@H](CC(C)C)N(C)C1=O [pd427] ([dV][NMeF]L[NMeL]T[Sar][NMeL]S(CH2CMe2OH)[NMePhe(3-Cl)][NMeL]D-Piperidide; lactam N-11)	1.3 ×10⁻⁶ cm/s
CCO[C@@H]1C[C@H]2C(=O)N[C@@H](COC(C)(C)C)C(=O)N(C)[C@@H](CC(C)C)C(=O)N(C)[C@@H](CC(C)C)C(=O)N3CCC[C@H]3C(=O)N[C@@H]([C@@H](C)O)C(=O)N(C)[C@@H](Cc3ccccc3)C(=O)N[C@@H](Cc3ccccc3)C(=O)N(C)[C@@H](CC(C)C)C(=O)N[C@H](C(=O)N3CCCCC3)CC(=O)N[C@H](CC(C)C)C(=O)N2C1 [pd378] ([dL][Hyp](Et)S(tBu)[NMeL][NMeL]PT[NMeF]F[NMeL]D-Piperidide; lactam N-11)	1.2 ×10⁻⁶ cm/s
CC(C)CCOC[C@@H]1NC(=O)[C@H](CCN2CCCC(F)(F)C2)N(C)C(=O)[C@H](Cc2ccccc2)N(C)C(=O)CN(C)C(=O)[C@H]([C@@H](C)O)NC(=O)[C@H](CC(C)C)N(C)C(=O)[C@H](CC(C)C)NC(=O)[C@H](Cc2ccccc2)N(C)C(=O)CN(C)C(=O)C[C@@H](C(=O)N2CCCCC2)NC(=O)[C@H](CC(C)C)N(C)C1=O [pd393] ([Sar][NMeF]L[NMeL]T[Sar][NMeF][NMeAbu(3,3-F2-piperidino)]S(Isopentyl)[NMeL]D-Piperidide; lactam N-11)	2.5 ×10⁻⁶ cm/s
CCCCN1CC(=O)N(C)[C@@H](CC(C)C)C(=O)N[C@@H](CCC(=O)NS(C)(=O)=O)C(=O)N(C)[C@@H](Cc2cccc(Cl)c2)C(=O)N(C)[C@@H](C(C)C)C(=O)N[C@H](C(=O)N2CCCCC2)CC(=O)N[C@H](CC(C)C)C(=O)N(C)[C@@H](Cc2cccc(Cl)c2)C(=O)N[C@@H](CC(C)C)C(=O)N(C)[C@@H](CC)C(=O)N[C@@H]([C@@H](C)O)C1=O [pd61] ([dL][NMePhe(3-Cl)]L[NMeAbu]T[NBuGly][NMeL][Glu(NHSO2Me)][NMePhe(3-Cl)][NMeV]D-Piperidide; lactam N-11)	< 0.094 ×10⁻⁶ cm/s
CC(C)C[C@@H]1NC(=O)[C@H](C)N(C)C(=O)C[C@@H](C(=O)N2CCCCC2)NC(=O)[C@H](CC(C)C)N(C)C(=O)CN(C)C(=O)[C@H]([C@@H](C)O)NC(=O)[C@H](C(C)C)N(C)C(=O)[C@H](CC(C)C)N(C)C(=O)[C@H](Cc2ccc(C(F)F)cc2)NC(=O)[C@H](CC(C)C)N(C)C(=O)[C@H](CC(C)C)N(C)C1=O [pd474] ([NMeA]L[NMeL][NMeL][Phe(4-CHF2)][NMeL][NMeV]T[Sar][NMeL]D-Piperidide; lactam N-11)	4.5 ×10⁻⁶ cm/s
CC(C)C[C@@H]1NC(=O)[C@H](CC(C)C)N(C)C(=O)CCCN(C)C(=O)C[C@@H](C(=O)N2CCCCC2)NC(=O)[C@H](CC(C)C)N(C)C(=O)[C@H](CC(C)C)N(C)C(=O)[C@H]([C@@H](C)O)NC(=O)[C@H](CC(C)C)N(C)C(=O)[C@H](COCCN(C)C)NC(=O)[C@H](Cc2ccccc2)N(C)C(=O)[C@H](Cc2ccccc2)N(C)C1=O [pd54] ([NMeGABA][NMeL]L[NMeF][NMeF]S(Me2NCH2CH2)[NMeL]T[NMeL][NMeL]D-Piperidide; lactam N-11)	0.073 ×10⁻⁶ cm/s
CC(C)C[C@H]1C(=O)N(C)[C@@H](Cc2ccccc2)C(=O)N[C@H](C(=O)N2CCCCC2)CC(=O)N(C)[C@@H](C(C)C)C(=O)N[C@@H](C)C(=O)N(C)[C@@H](Cc2ccccc2)C(=O)N(C)[C@@H](CC(C)C)C(=O)N(C)CC(=O)N[C@@H]([C@@H](C)O)C(=O)N(C)[C@@H](C(C)C)C(=O)N[C@@H](CCc2ccccc2)C(=O)N1C [pd311] ([NMeV]A[NMeF][NMeL][Sar]T[NMeV][hPhe][NMeL][NMeF]D-Piperidide; lactam N-11)	2.6 ×10⁻⁶ cm/s

Same assay, conditions: human, Caco-2, Caco-2 (cm/sec)

Structure (SMILES)	Papp A→B at 180 min
CC(C)C[C@H]1C(=O)N[C@@H](COC(C)(C)C)C(=O)N(C)[C@@H](Cc2ccccc2)C(=O)N(C)[C@@H](C(C)C)C(=O)N[C@H](C(=O)N2CCCCC2)CC(=O)N[C@H](C(C)C)C(=O)N(C)[C@@H](C)C(=O)N[C@@H](C(C)C)C(=O)N(C)[C@@H](CC(C)C)C(=O)N[C@@H](Cc2ccc(O)cc2)C(=O)N(C)CC(=O)N1C [pd121] ([dV][NMeA]V[NMeL]Y[Sar][NMeL]S(tBu)[NMeF][NMeV]D-Piperidide; lactam N-11)	1 ×10⁻⁶ cm/s
CC(C)C[C@H]1C(=O)N[C@@H](COC(C)(C)C)C(=O)N(C)[C@@H](Cc2ccccc2)C(=O)N(C)[C@@H](C)C(=O)N[C@H](C(=O)N2CCCCC2)CC(=O)N[C@H](C(C)C)C(=O)N(C)[C@@H](CC(C)C)C(=O)N[C@@H](Cc2ccc(C(F)(F)F)cc2)C(=O)N(C)[C@@H](CC(C)C)C(=O)N[C@@H]([C@@H](C)O)C(=O)N(C)CC(=O)N1C [pd138] ([dV][NMeL][Phe(4-CF3)][NMeL]T[Sar][NMeL]S(tBu)[NMeF][NMeA]D-Piperidide; lactam N-11)	2.6 ×10⁻⁶ cm/s
CC(C)C[C@@H]1NC(=O)[C@H](Cc2ccccc2)N(C)C(=O)[C@H](CC(C)C)N(C)C(=O)[C@H](Cc2ccccc2)NC(=O)[C@@H](C)NC(=O)C[C@@H](C(=O)N2CCCCC2)NC(=O)[C@H](Cc2ccccc2)N(C)C(=O)CN(C)C(=O)[C@H](Cc2ccccc2)NC(=O)[C@H](CC(C)C)N(C)C(=O)[C@H]([C@@H](C)O)NC1=O [pd244] ([dA]F[NMeL][NMeF]LT[NMeL]F[Sar][NMeF]D-Piperidide; lactam N-11)	0.045 ×10⁻⁶ cm/s
CC(C)C[C@@H]1NC(=O)[C@H](Cc2ccccc2)N(C)C(=O)[C@@H](C(C)C)NC(=O)C[C@@H](C(=O)N2CCCCC2)NC(=O)[C@H](Cc2ccccc2)N(C)C(=O)[C@H](Cc2ccccc2)N(C)C(=O)[C@H](C(C)C)NC(=O)[C@H](CC(C)C)N(C)C(=O)CN(C)C(=O)[C@H]([C@@H](C)O)NC(=O)[C@H](CC(C)C)N(C)C1=O [pd221] ([dV][NMeF]L[NMeL]T[Sar][NMeL]V[NMeF][NMeF]D-Piperidide; lactam N-11)	1.1 ×10⁻⁶ cm/s
CC(C)C[C@H]1C(=O)N[C@H](C(=O)N2CCCCC2)CC(=O)N[C@H](C)C(=O)N(C)[C@@H](CC(C)C)C(=O)N[C@@H](COC(C)(C)C)C(=O)N(C)[C@@H](CC(C)C)C(=O)N2CCCC[C@H]2C(=O)N(C)[C@@H](C)C(=O)N[C@@H]([C@@H](C)O)C(=O)N(C)[C@@H](Cc2ccccc2)C(=O)N[C@@H](Cc2ccc(C(F)(F)F)cc2)C(=O)N1C [pd137] ([dA][NMeL]S(tBu)[NMeL][Pip][NMeA]T[NMeF][Phe(4-CF3)][NMeL]D-Piperidide; lactam N-11)	2.2 ×10⁻⁶ cm/s

Same assay, conditions: human; Papp, Caco-2 membrane permeability, improved method; read-out: Caco-2

Structure (SMILES)	Papp A→B at 180 min
CC[C@H](C)[C@H]1C(=O)N[C@@H]([C@@H](C)O)C(=O)N(C)CC(=O)N(C)[C@@H](CC)C(=O)N[C@H](C(=O)N2CCCCC2)CC(=O)N(C)[C@@H](C)C(=O)N[C@@H](Cc2ccc(C(F)F)cc2)C(=O)N(C)[C@@H](CC(C)C)C(=O)N(C)[C@@H](Cc2ccccc2)C(=O)N[C@@H](CC(C)C)C(=O)N(C)[C@@H](CC(C)C)C(=O)N1C [pd473] ([NMeA][Phe(4-CHF2)][NMeL][NMeF]L[NMeL][NMeI]T[Sar][NMeAbu]D-Piperidide; lactam N-11)	4.5 ×10⁻⁶ cm/s
CCCCN1CC(=O)N(C)[C@@H](Cc2ccccc2)C(=O)N(C)[C@@H](CC(C)C)C(=O)N[C@@H](CC(C)C)C(=O)N(C)[C@@H](CC(C)C)C(=O)N[C@H](C(=O)N2CCCCC2)CC(=O)N(C)CC(=O)N(C)[C@@H](CC(C)C)C(=O)N[C@@H](C(C)C)C(=O)N(C)[C@@H](CC(C)C)C(=O)NC(CCc2noc(=O)[nH]2)C1=O (stereo partly drawn) [pd488] ([Sar][NMeL]V[NMeL][X5][NBuGly][NMeF][NMeL]L[NMeL]D-Piperidide; lactam N-11)	1.6 ×10⁻⁶ cm/s
